This passage reports EC50 results from publication PMC9135895, “The effects of two gold-N-heterocyclic carbene (NHC) complexes in ovarian cancer cells: a redox proteomic study” (Cancer Chemotherapy and Pharmacology, 2022).

For assay [1], the target named is T1, Glyceraldehyde-3-phosphate dehydrogenase (GAPDH) (Homo sapiens, UniProt P04406).
T1 construct: endogenous GAPDH in A2780 cell extract
Briefly: GAPDH activity ([…] nm) in A2780 crude cell extract after […] min pre-incubation; no adduct seen by ESI-MS with rabbit GAPDH. The class given is biochemical.

For assay [2], the target named is T1, Glyceraldehyde-3-phosphate dehydrogenase (GAPDH). Nature of the assay: GAPDH activity ([…] nm) in A2780 crude cell extract after […] min pre-incubation. Type of assay: biochemical.

T1 sequence (P04406 2-335): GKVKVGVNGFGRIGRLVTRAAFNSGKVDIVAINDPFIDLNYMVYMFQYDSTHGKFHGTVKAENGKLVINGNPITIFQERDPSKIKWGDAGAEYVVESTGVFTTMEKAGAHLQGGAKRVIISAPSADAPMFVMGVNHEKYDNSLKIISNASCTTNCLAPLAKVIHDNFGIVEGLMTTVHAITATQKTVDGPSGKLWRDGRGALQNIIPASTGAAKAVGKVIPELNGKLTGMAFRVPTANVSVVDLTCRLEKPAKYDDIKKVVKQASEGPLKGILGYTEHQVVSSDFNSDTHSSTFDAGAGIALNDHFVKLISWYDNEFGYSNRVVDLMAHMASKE

`CCCCn1cc[n+](C)[c]1[AuH][c]1n(CCCC)cc[n+]1C` [compound 2, bis(1-butyl-3-methyl-imidazole-2-ylidene) gold(I)] came in with an EC50 in assay [1] of 7.13 ± 0.1 µM.
Regarding `CCCCn1cc[n+](C)[c]1[Au-][Cl]` [compound 1, chlorido (1-butyl-3-methyl-imidazole-2-ylidene) gold(I)], the EC50 in assay [2] turned out to be 2.86 ± 0.3 µM.
